Test results published in patent US20110245242A1, “Heterocyclically Substituted Anilinopyrimides” (Bayer CropScience AG, priority 2008, published 2011).

Assay: log P by HPLC on reversed-phase columns (C 18), method [a], acidic range pH 2.3
Type: physicochemical
Settings: pH 2.3
Protocol: The log P values were measured in accordance with EEC Directive 79/831 Annex V.A8 by HPLC (High Performance Liquid Chromatography) on reversed-phase columns (C 18) using the methods below: [a] The determination was carried out in the acidic range at pH 2.3 using the mobile phases 0.1% aqueous phosphoric acid and acetronitrile linear gradient from 10% acetonitrile to 95% acetronitrile.

SMILES | log p | log P (pH 2.3)
C[C@@H]1CCN(c2cccc(Nc3ncc(Cl)c(NC4CC4)n3)c2)C1=O [Example 123] | 2.86[a]; | 
CC(C)CC1COC(=O)N1c1cccc(Nc2ncc(Cl)c(NC3CC3)n2)c1 (stereo not shown) [Example 47] | 2.54[a] | 
CC1CCN(c2cccc(Nc3ncc(Cl)c(NC4CC4)n3)c2)C1=O (stereo not shown) [Example 26] | 1.76[a] | 
CC(C)CC1COC(=O)N1c1cccc(Nc2ncc(Br)c(NC3CC3)n2)c1 (stereo not shown) [Example 48] | 2.69[a] | 
CC(C)C1COC(=O)N1c1cccc(Nc2ncc(Cl)c(NC3CCC3)n2)c1 (stereo not shown) [Example 46] | 2.41[a] | 
O=C1CCCCCN1c1cccc(Nc2ncc(Cl)c(NC3CC3)n2)c1 [Example 55] | 1.7[a] | 
O=C1CCC(c2ccccc2)N1c1cccc(Nc2ncc(Cl)c(NC3CC3)n2)c1 (stereo not shown) [Example 87] | 2.1[a] | 
CCC1CC(C)C(=O)N1 (stereo not shown) [5-Ethyl-3-methylpyrrolidin-2-one] |  | 0.96
O=C1CCCCN1c1cccc(Nc2ncc(F)c(NC3CCC3)n2)c1 [Example 58] | 1.29[a] | 
CC(C)CC1COC(=O)N1c1cccc(Nc2ncc(Cl)c(NC3CCC3)n2)c1 (stereo not shown) [Example 49] | 2.83[a] | 
CC(C)[C@H]1COC(=O)N1c1cccc(Nc2ncc(Cl)c(N(C)C3CC3)n2)c1 [Example 115] | 3.09[a] | 
CC(C)CC1COC(=O)N1c1cccc(Nc2ncc(Br)c(NC3CCC3)n2)c1 (stereo not shown) [Example 50] | 3.05[a] | 
CCC1COC(=O)N1c1cccc(Nc2ncc(Br)c(NC3CC3)n2)c1 (stereo not shown) [Example 32] | 2.01[a] | 
O=C1CCC(CO)N1c1cccc(Nc2ncc(Cl)c(NC3CC3)n2)c1 (stereo not shown) [Example 86] | 0.98[a] | 
CC(C)C1COC(=O)N1c1cccc(Nc2ncc(Br)c(NC3CC3)n2)c1 (stereo not shown) [Example 45] | 2.24[a] | 
CC1COC(=O)N1c1cccc(Nc2ncc(Cl)c(NC3CCC3)n2)c1 (stereo not shown) [Example 57] | 1.81[a] | 
CNc1nc(Nc2cccc(N3CCCC3=O)c2)ncc1Cl [Example 38] | 1.05[a] | 
C[C@@H]1COC(=O)N1c1cccc(Nc2ncc(Cl)c(NC3CCC3)n2)c1 [Example 102] | 1.56[a] | 

Continued, values first:

log p | log P (pH 2.3) | SMILES
 | 1.96 | FC(F)CNc1nc(Cl)ncc1Cl [Example V-4, 2,5-Dichloro-N-(2,2-difluoroethyl)pyrimidin-4-amine]
2.42 |  | CCCNc1nc(Cl)ncc1Cl [Example V-38, 2,5-Dichloro-N-propylpyrimidin-4-amine]
 | 2.76 | O=C1OCCN1c1ccc(Nc2ncc(C(F)(F)F)c(Cl)n2)cc1 [VI-4, 3-(4-{[4-Chloro-5-(trifluoromethyl)pyrimidin-2-yl]amino}phenyl)-1,3-oxazolidin-2-one]

Same assay, conditions: pH 2.3, log P (pH 2.3)

SMILES | chromatographic logP
Nc1cc(N2C(=O)CCC2=O)ccc1Cl [1-(3-Amino-4-chlorophenyl)pyrrolidine-2,5-dione] | 0.79
CCC1CCC(=O)N1c1cccc(N)c1 (stereo not shown) [1-(3-Aminophenyl)-5-ethylpyrrolidin-2-one] | 0.94
Nc1ccc(F)c(N2CCCC2=O)c1 [1-(5-Amino-2-fluorophenyl)pyrrolidin-2-one] | 0.31
CCC(CC(C)C(=O)OC)[N+](=O)[O-] (stereo not shown) [Methyl 2-methyl-4-nitrohexanoate] | 2.23
C[C@@H]1COC(=O)N1c1cccc(N)c1 [(4R)-3-(3-Aminophenyl)-4-methyl-1,3-oxazolidin-2-one] | 0.27
CCOC(=O)[C@@H]1CCC(=O)N1c1cccc(N)c1 [Ethyl 1-(3-aminophenyl)-5-oxo-L-prolinate] | 0.84
Clc1cnc(Nc2ccc(I)cc2)nc1NC1CC1 [5-Chloro-N^4-cyclopropyl-N^2-(4-iodophenyl)pyrimidine-2,4-diamine] | 2.73
CC1(C)CC(=O)N(c2cccc([N+](=O)[O-])c2)C1=O [3,3-Dimethyl-1-(3-nitrophenyl)pyrrolidine-2,5-dione] | 2.01
COc1cc(NC(=O)CCCCl)cc([N+](=O)[O-])c1 [4-Chloro-N-(3-methoxy-5-nitrophenyl)butanamide] | 2.46
CCC1CC(C)C(=O)N1c1cccc(N)c1 (stereo not shown) [1-(3-Aminophenyl)-5-ethyl-3-methylpyrrolidin-2-one] | 1.31
CC1CCN(Cc2cccc([N+](=O)[O-])c2)C1=O (stereo not shown) [3-Methyl-1-(3-nitrobenzyl)pyrrolidin-2-one] | 1.82
CCC1CC(C)C(=O)N1 (stereo not shown) [5-Ethyl-3-methylpyrrolidin-2-one] | 1.02
COc1cc(N2CCCC2=O)cc([N+](=O)[O-])c1 [1-(3-Methoxy-5-nitrophenyl)pyrrolidin-2-one] | 1.99
COc1cc(N)cc(N2CCCC2=O)c1 [1-(3-Amino-5-methoxyphenyl)pyrrolidin-2-one] | 0.6
CC1CCC(=O)N1c1cccc(N)c1 (stereo not shown) [1-(3-Aminophenyl)-5-methylpyrrolidin-2-one] | 0.52
Nc1cccc(N2C(=O)CCC2C(F)(F)F)c1 (stereo not shown) [1-(3-Aminophenyl)-5-(trifluoromethyl)pyrrolidin-2-one] | 1.07

Second part, the compound after the results:

chromatographic logP | SMILES
3.1 | CCC1CC1Nc1nc(Cl)ncc1Cl (stereo not shown) [Example V-43, 2,5-Dichloro-N-(2-ethylcyclopropyl)pyrimidin-4-amine]
2.91 | Cc1ccc(Nc2ncc(Cl)c(NC3CC3)n2)cc1Br [VII-4, 5-Chloro-N^2-[3-bromo-4-(methyl)phenyl]-N^4-cyclopropylpyrimidine-2,4-diamine]
2.26 | FC(F)(F)CNc1nc(Cl)ncc1Cl [Example V-5, 2,5-Dichloro-N-(2,2,2-trifluoroethyl)pyrimidin-4-amine]
2.84 | Clc1ncc(Cl)c(N2CCSCC2)n1 [Example V-32, 4-(2,5-Dichloropyrimidin-4-yl)thiomorpholine]
1.83 | COCC(C)Nc1nc(Cl)ncc1C#N (stereo not shown) [Example V-30, 2-Chloro-4-[(1-methoxypropan-2-yl)-amino]pyrimidine-5-carbonitrile]
2.55 | Clc1cnc(Nc2ccc(Br)cc2)nc1NC1CC1 [VII-8, N^2-(4-Bromophenyl)-5-chloro-N^4-cyclopropylpyrimidine-2,4-diamine]
2.66 | CC(Nc1nc(Cl)ncc1Cl)C(F)(F)F (stereo not shown) [Example V-37, 2,5-Dichloro-N-(1,1,1-trifluoropropan-2-yl)pyrimidin-4-amine]
2.68 | CC1CC1Nc1nc(Cl)ncc1Br (stereo not shown) [Example V-41, 5-Bromo-2-chloro-N-(2-methylcyclopropyl)pyrimidin-4-amine]
2.7 | Brc1ccc(Nc2ncc(Br)c(NC3CC3)n2)cc1 [VII-11, 5-Bromo-N^2-(4-bromophenyl)-N^4-cyclopropylpyrimidine-2,4-diamine]
3.18 | Brc1ccc(Nc2ncc(Br)c(NC3CCC3)n2)cc1 [VII-10, 5-Bromo-N^2-(4-bromophenyl)-N^4-cyclobutylpyrimidine-2,4-diamine]
1.99 | Clc1ncc(Cl)c(N2CCOCC2)n1 [Example V-33, 4-(2,5-Dichloropyrimidin-4-yl)morpholine]
3.2 | CC1CC(Nc2nc(Cl)ncc2Cl)C1 (stereo not shown) [Example V-39, 2,5-Dichloro-N-(3-methylcyclobutyl)pyrimidin-4-amine]
2.11 | Clc1ncc(Cl)c(N2CCC2)n1 [Example V-35, 4-(Azetidin-1-yl)-2,5-dichloropyrimidine]
3.52 | Clc1ncc(Cl)c(N2CCCCC2)n1 [Example V-36, 2,5-Dichloro-4-(piperidin-1-yl)pyrimidine]
3.99 | FC(F)(F)Oc1ccc(Nc2ncc(Cl)c(NC3CC3)n2)cc1Br [VII-3, 5-Chloro-N^2-[3-bromo-4-(trifluoromethoxy)phenyl]-N^4-cyclopropylpyrimidine-2,4-diamine]
3.55 | Clc1ccc(Nc2ncc(Cl)c(NC3CC3)n2)cc1Br [VII-6, N^2-(3-Bromo-4-chlorophenyl)-5-chloro-N^4-cyclopropylpyrimidine-2,4-diamine]
3.34 | Brc1cnc(Nc2cccc(I)c2)nc1NC1CC1 [VII-2, 5-Bromo-N^4-cyclopropyl-N^2-(3-iodophenyl)pyrimidine-2,4-diamine]
2.82 | CN(c1nc(Cl)ncc1Cl)C1CC1 [Example V-26, 2,5-Dichloro-N-methyl-N-cyclopropylpyrimidin-4-amine]
2.91 | Clc1cnc(Nc2cccc(Br)c2)nc1NC1CC1 [VII-5, N^2-(3-Bromophenyl)-5-chloro-N^4-cyclopropylpyrimidine-2,4-diamine]
2.17 | Fc1cnc(Cl)nc1NC1CCC1 [Example V-28, 5-Fluoro-2-chloro-N-cyclobutylpyrimidin-4-amine]
2.74 | O=C1OCCN1c1ccc(Nc2ncc(C(F)(F)F)c(Cl)n2)cc1 [VI-4, 3-(4-{[4-Chloro-5-(trifluoromethyl)pyrimidin-2-yl]amino}phenyl)-1,3-oxazolidin-2-one]
3.04 | CC1(C)CC1Nc1nc(Cl)ncc1Cl (stereo not shown) [Example V-27, 2,5-Dichloro-N-(2,2-dimethylcyclopropyl)pyrimidin-4-amine]
2.75 | COCC(C)Nc1nc(Cl)ncc1C(F)(F)F (stereo not shown) [Example V-3, 2-Chloro-N-(3-methoxypropan-2-yl)-5-trifluoromethylpyrimidin-4-amine]
1.31 | Clc1ncc(Cl)c(NC2COC2)n1 [Example V-29, 2,5-Dichloro-N-(oxetan-3-yl)pyrimidin-4-amine]
2.98 | O=C1CCCN1c1cccc(Nc2ncc(C(F)(F)F)c(Cl)n2)c1 [VI-1, 1-(3-{[4-Chloro-5-(trifluoromethyl)pyrimidin-2-yl]amino}phenyl)pyrrolidin-2-one]
4.6 | FC(F)(F)c1cc(Br)cc(Nc2ncc(Cl)c(NC3CC3)n2)c1 [VII-7, N^2-[3-Bromo-5-(trifluoromethyl)phenyl]-5-chloro-N^4-cyclopropylpyrimidine-2,4-diamine]

Assay: log P by LC-MS, method [b], acid range pH 2.7
Type: physicochemical
Settings: pH 2.7
Protocol: The log P values were measured in accordance with EEC Directive 79/831 Annex V.A8 by HPLC (High Performance Liquid Chromatography) on reversed-phase columns (C 18) using the methods below:
[b] The LC-MS determination in the acid range was carried out at pH 2.7 using the mobile phases 0.1% aqueous formic acid and acetonitrile (contains 0.1% formic acid)
linear gradient from 10% acetonitrile to 95% acetonitrile.

log p | SMILES
2.86[b] | C[C@@H]1CCN(c2cccc(Nc3ncc(Cl)c(NC4CC4)n3)c2)C1=O [Example 123]
